Data reported in PubChem BioAssay AID435016 (Vanderbilt High Throughput Screening Facility, 2010).

System: HEK293 alpha2C/GIRK, thallium flux fluorescence
Test: alpha2C-dependent GIRK activation, antagonist reversal – cell-based, thallium flux, with rauwolscine, mechanism study for alpha2C adrenergic receptor project, dose response (AID 435016)

SMILES | EC50 [µM]
O=c1c(-c2ccc3c(c2)OCCO3)c(C(F)(F)F)oc2cc(O)cc(O)c12 | 9.18
CCSc1nnc(NC(=O)NC(CC)(C(F)(F)F)C(F)(F)F)s1 | 3.24
C=CCn1c(=S)[nH]c2ccccc2c1=O | 3.19
CCOC(=O)c1ccc(NC(=O)NC(C)C2CCCO2)cc1 (centres undefined) | 49.9
